Reference: US12048686B2, “Compositions and methods for activating NRF2-dependent gene expression” (The University of Chicago, priority 2018, dated 2024)

System: IMR32 cells
Test: Targeted LC-MS measurement of cellular MGx levels in IMR32 cells
Type: cell-based
Conditions: relative to DMSO
From the text: FIG. 8A-H. MGx and glyoxylase activity regulates NRF2 activation. CBR-470-1 causes elevated MGx levels in cells. (a) Schematic depicting chemical derivatization and trapping of cellular MGx for analysis by targeted metabolomics using two unique fragment ions. (b, c) Daughter ion fragments (b) and resulting MS/MS quantification of MGx levels (c) in IMR32 cells treated with CBR-470-1, relative to DMSO (n=4). (d) Quantitative LC-MS/MS measurement of cellular MGx levels in IMR32 cells treated for 2 hours with CBR-470-1 or co-treated for 2 hours with CBR-470-1 and NAC (2 mM) relative to DMSO (n=4).
Quantitative Metabolomic Profiling. […] Metabolite peak transitions and retention times are listed in Table 2 and were confirmed by running standards for measured glycolytic, PPP, CAC and co-factor metabolites. 2-phosphoglycerate and 3-phosphoglycerate isomers were quantified in aggregate (2PG/3PG). Relative metabolite abundance was quantified by integrated peak area for the given MRM-transition, and all metabolite levels were normalized to internal standard extracted ion intensity values for d3-serine. These parameters were used to quantify all metabolites, with the exception of 1,3-BPG and MGx, which required chemical derivitization to stable intermediates prior to LC-MS/MS quantification, as previously reported^20, 33. […]

Q: Which “cellular MGx levels” value does the source give for `CC(C)CN[C@H]1CS(=O)(=O)C[C@@H]1S(=O)(=O)c1ccc(Cl)cc1` [CBR-470-1] here?
A: significant elevation of cellular MGx levels in the first few hours of treatment
